Source: patent US12275995B2, “Lysinibacillus sphaericus and aspirin chemoprevention of colorectal cancer” (priority 2019, dated 2025)

How the values were obtained:
[1] = reference 24, cited from earlier work
[2] = Plasma and luminal aspirin/salicylic acid level in L. sphaericus-monocolonized germ-free mice; type: in vivo; settings: for plasma level of aspirin: L. sphaericus-monocolonized germ-free mice compared with control germ-free mice
Experimental: (§1) The levels of aspirin from plasma, gut luminal contents and culture medium was determined by ultra-high-performance liquid chromatography-quadrupole time-of-flight mass spectrometry (UHPLC-Q-TOF/MS). The detection sample was mixed in 5 μL 4-C1-phenylalanine (0.39 mg/mL, internal standard). Aspirin and salicylic acid were extracted twice by 400 μL cold methanol. Supernatants were dried under nitrogen stream and detected by UHPLC (1290 Infinity LC, Agilent, Santa Clara, Calif.) and MS (6550 Q-TOF/MS, Agilent, CA).
(§2) The primary metabolite of aspirin, salicylic acid, in culture medium was examined by Trinder's method^26. Equal number of fecal bacteria (estimated by optical density (OD) 600) from APC^min/+ mice with and without antibiotic treatment were inoculated into the brain heart infusion (BHI) medium (Thermo Fisher Scientific) containing aspirin (10 mM). After 2-hour co-incubation at 37° C., the level of salicylic acid in medium was measured by Trinder's method^26. Briefly, the supernatant of medium was mixed with a solution containing 40 g ferric nitrate, 40 g mercuric chloride and 120 mL 1N HCL in 1 L ddH2O at 1:5 ratio. Salicylic acid was quantified by absorbance value at 540 nm. The plasma and luminal content levels of salicylic acid were evaluated by UHPLC-Q-TOF/MS.
In order to determine whether L. sphaericus can degrade aspirin and impacts its bioavailability in vivo, germ-free mice were gavaged with L. sphaericus (1×10^8 CFU) once/day for three days, followed by oral administration of aspirin (10 mg/kg) (FIG. 6C). […] Taken together, these findings from in vitro and in vivo experiments indicate that L. sphaericus causes aspirin degradation in the gut, thereby reducing aspirin bioavailability.

[3] = tested on: gut microbiota; assay: Shotgun metagenomics of feces from aspirin-treated versus control APCmin/+ mice; type: in vivo
Experimental: Whole-genome shotgun metagenomic sequencing of fecal samples from mice were performed on Illumina HiSeq 2000 (Illumina, San Diego, Calif.) as previously described^27. […] Mammalian genomes (hg38, felCat8, canFam3, mm10, rn6, susScr3, galGal4 and bosTau8; UCSC Genome Browser) and 6877 bacterial plasmids (NCBI RefSeq database accessed on May 12, 2016), 2116 complete plastomes (NCBI RefSeq database accessed on May 12, 2016) and 6093 UNiVec sequences (NCBI RefSeq database accessed on May 12, 2016), which are potential habitat-/laboratory-associated or extra-chromosomal sequence contaminants, were removed after alignment using Bowtie2 v_2.2.9 with “very-sensitive” default settings. Taxonomy was assigned to metagenomic reads using k-mer-based algorithms implemented in Kraken taxonomic annotation pipeline with each k-mer in a read mapped to the lowest common ancestor of all reference genomes with exact k-mer matches. Each query was thereafter classified to a taxon with the highest total hits of k-mer matched by pruning the general taxonomic trees affiliated with mapped genomes. The final metagenomic read counts were rarified to the sample with the lowest value and further normalized by cumulative sum scaling. In-house fecal metagenomic sequences were examined for the abundance of candidate bacteria identified from mouse fecal samples^27,28.

[4] = tested on: PGE2; assay: Plasma PGE2 by ELISA; type: in vivo, mice
Experimental: The plasma levels of PGE2 were measured using Multispecies Competitive ELISA Kit (Thermo Fisher Scientific). Briefly, 500 μL ice-cold methanol was added to 150 μL of plasma sample with 28 μM indomethacin and mixed vigorously. After acidification by 2M HCl to pH 3.5, the aqueous layer was extracted with 500 μL chloroform and centrifuged at 2000 g for 20 min^25. The […] organic phase was discarded, and the remaining aqueous phase was evaporated to dryness under nitrogen, before measurement by the kit.

[5] = tested on: colorectal tumorigenesis; assay: AOM/DSS-induced colorectal cancer model in conventional C57BL/6 mice; type: in vivo
Source text: For each cycle, mice were allowed free access to drinking water supplemented with 2.0% DSS for 5 days, followed by 16 days of regular water. Drinking water was supplemented with antibiotics cocktail (0.2 g/L of ampicillin, neomycin and metronidazole and 0.1 g/L of vancomycin) for two weeks, every other two weeks, till the end of experiment, to deplete the gut microbiota. […] At day 80 for AOM/DSS model and day 84 for APC^min/+ model, mice were harvested. The intestines were longitudinally opened along the mesenteric margin and flushed with ice-cold phosphate-buffered saline (PBS). Solid neoplastic lesions were carefully counted for tumor number and measured for tumor size (average diameter, (major diameter+minor diameter)/2) and tumor load (sum of average diameters of all tumors). The intestinal tissues were fixed in 10% neutral buffered formalin and embedded in paraffin. Sections (4 μm) were stained with hematoxylin and eosin for histological examination by a pathologist (A/Professor Anthony W H Chan) who was blind to the experimental design. The remaining tissues were snap-frozen in liquid nitrogen, and stored at −80° C. until use. All procedures adhered to the guidelines approved by the Animal Experimentation Ethics Committee of the Chinese University of Hong Kong.

[6] = Plasma aspirin/salicylic acid level in APCmin/+ mice with or without antibiotics (UHPLC-Q-TOF/MS); type: in vivo; settings: for plasma level of aspirin: antibiotics-treated APCmin/+ mice relative to mice with intact microbiota
Experimental: as §1, §2
To determine the reason for the enhanced CRC inhibitory effect of aspirin in microbiota-depleted mice, the plasma level of aspirin was evaluated in mice with or without intact microbiota. Antibiotics cocktail was administered to APC^min/+ mice for five days followed by oral administration of aspirin (10 mg/kg) (FIG. 4A), and subsequent UHPLC-Q-TOF/MS analysis (FIG. 4B). […] To confirm this observation, the level of salicylic acid, the primary metabolite of aspirin, was evaluated in the plasma. The plasma level of salicylic acid increased at 1 h post aspirin administration in microbiota-depleted mice compared to mice with intact microbiota (FIG. 9). These findings indicate that the gut microbiota is associated with the reduction of aspirin bioavailability.

[7] = 0.5 h post oral aspirin 10 mg/kg
[8] = aspirin-treated APCmin/+ mice compared to control
[9] = aspirin 400 mg/L drinking water, microbiota-depleted (antibiotics cocktail) AOM/DSS-treated mice, vs no aspirin
[10] = high-dose aspirin 1200 mg/L, conventional AOM/DSS-treated mice gavaged with L. sphaericus twice/week
[11] = higher dose aspirin 1200 mg/L in drinking water, microbiota-intact AOM/DSS-treated mice, vs mice without aspirin

CC(=O)Oc1ccccc1C(=O)O [aspirin, acetylsalicylic acid]
level in circulation, effect of gut microbiota ([1]; after oral administration): reducing its level in circulation
difference in blood levels of aspirin in rats with and without microbial depletion ([1]; intravenous administration): abolished by intravenous administration
antithrombotic activity, effect of gut microbiota ([1]; oral administration): reduced the antithrombotic activity
plasma level of aspirin [2, 7]: significantly reduced
plasma level of aspirin ([2]; 1 h post oral aspirin 10 mg/kg): significantly reduced
level of salicylic acid in the colon luminal content ([2]; 3 h post oral aspirin 10 mg/kg, L. sphaericus-monocolonized mice compared to control germ-free mice): significantly reduced
plasma level of salicylic acid ([2]; 3 h post oral aspirin 10 mg/kg, L. sphaericus-monocolonized mice vs control germ-free mice): significantly lowered
association between microbial community composition and aspirin treatment (multivariate component analysis) ([3]; antibiotics-naive aspirin-treated APCmin/+ vs control mice): significant associations
Bifidobacterium and Lactobacillus genera (linear discriminant analysis effect size) [3, 8]: enrichment
Clostridium and Clostridiodes genera [3, 8]: depleted
probiotic species B. pseudolongum, B. breve, B. animalis, L. reuteri, L. gasseri, L. johnsonii [3, 8]: enriched
plasma PGE2 level ([4]; AOM/DSS mice with depleted microbiota): significantly decreased
plasma PGE2 level ([4]; AOM/DSS-treated germ-free mice): reductions
plasma PGE2 level ([4]; APCmin/+ mice with depleted microbiota): significantly decreased
plasma PGE2 level ([4]; conventional mice with intact microbiota, compared to control mice): no differences
plasma PGE2 level ([4]; conventionalized germ-free mice, compared to control mice): no differences
colorectal tumor load [5, 9]: significant reductions
colorectal tumor number [5, 9]: significant reductions
preventive effect on tumor load [5, 10]: marginally
preventive effect on tumor number [5, 10]: impaired the preventive effect
colorectal tumor load [5, 11]: significantly reduced
colorectal tumor number [5, 11]: significantly reduced
plasma level of aspirin [6, 7]: significantly increased
plasma level of aspirin ([6]; 1 h post oral aspirin 10 mg/kg): significantly increased
plasma level of salicylic acid (primary metabolite of aspirin) ([6]; 1 h post oral aspirin 10 mg/kg, microbiota-depleted mice compared to mice with intact microbiota): increased
